Measured values from US20240050399A1, “PHARMACEUTICAL COMPOSITIONS, COMPRISING A COMBINATION OF SELECT CARRIERS AND […] ANTIPATHOGENS” (EpitoGenesis, Inc., priority 2020, published 2024).
Values after ≈ are worked out from the molar mass of the structure shown.

Tested on: SARS-CoV-2 USA-WA1/2020
Assay: Neutralization assay of SARS-CoV-2 with EGCG, quantified by Avicel plaque reduction assay on VeroE6 cells
Type: cell-based
Settings: for IC50: normalized against control (virus in DMEM)

SMILES: O=C(O[C@@H]1Cc2c(O)cc(O)cc2O[C@@H]1c1cc(O)c(O)c(O)c1)c1cc(O)c(O)c(O)c1 [EGCG, epigallocatechin gallate]
- in vitro antiviral activity on vero cells infected with SARS-CoV-2 (FIG. 1, plaque reduction): strong in vitro antiviral activity
- IC50 (dilution series 1): 42.65 µg/mL (≈ 93 µM)
- IC50 (dilution series 2): 32.89 µg/mL (≈ 71.8 µM)
- IC50 (dilution series 3): 36.09 µg/mL (≈ 78.7 µM)
